From patent US10836743B2, “Fluorinated cyclopropylamine compound, preparation method therefor, pharmaceutical composition thereof, and uses thereof” (SHANGHAI INSTITUTE OF MATERIA MEDICA, CHINESE ACADEMY OF …, priority 2016, dated 2020) come the findings set out here.

The structures appear in SMILES notation. Read-outs that look alike come from different tables or passages of the source.

This experiment has as its system leukemia cells MV4-11. The experiment is described as follows: Inhibitory activity on growth by MTS method. It counts as cell-based. Conditions: Homo sapiens. The method, then: 2. Test of Inhibitory Activities of Compound on Growth by MTS Method Experimental Principle:
MTS assay detects the inhibitory effect of the tested compound to the growth of leukemia cells MV (4:11). The principle is that succinate dehydrogenase in mitochondria in living cells can reduce exogenous thiazole blue to insoluble blue crystal Formazan.
• 1. MV4-11 cells in logarithmic growth phase were accurately counted at 16000 cells/mL, and the diluted cell solution was added to 96-well plates at 90 μL per well. • 2. Fresh medium was taken and sequentially added to a 96-well plate with cell fluid at 90 μL per well. • 3. […] 2 μL of the diluted compound was respectively added to a 96-well plate containing 98 μL of blank medium, and for DMSO group, 98 μL of blank medium was added into 2 μL of DMSO, and mixed for further use. • 5. The compound mixed with the medium was separately added to a 96-well plate in which cells were plated, in triplicate, 20 μL per well, and were mixed. The blank group was added with 200 μL of IMDM medium, and the DMSO group was added with 180 μL of the cell-containing medium in DMSO diluted with the medium. • 6. […]
Background: Formazan colour is commonly taken as a measure of viable cells.

Where [1] appears, read: 72 h, MV4-11, 3 days, read-out: MTS 3 D.
The mark [2] stands for this setting: 240 h, MV4-11, 10 days, read-out: MTS 10 D.

Regarding `O=S(=O)(CC1CCNCC1)N1CCC(F)(CNC2CC2c2ccccc2)CC1` (stereo not drawn) [Example A92, N-((4-Fluoro-1-(piperidin-4-ylmethyl)sulfonyl)piperidin-4-yl)methyl)-trans-2-phenylcyclopropylamine], the IC50 is, setting by setting: under setting [1], above 20 µM; under setting [2], 0.132 ± 0.055 µM.

As for `N#Cc1ccc(CN2CCC(F)(CN[C@@H]3C[C@H]3c3ccccc3)CC2)cc1` (relative stereo) [Example A96, 4-((4-Fluoro-4-(((trans-2-phenylcyclopropyl)amino)methyl)piperidin-1-yl)methyl)benzonitrile], the IC50 by setting is: under setting [1], above 20 µM; under setting [2], 0.159 ± 0.074 µM.

For `O=C(OC1CCNCC1)N1CCC(F)(CN[C@@H]2C[C@H]2c2ccccc2)CC1` (relative stereo) [Example A95, Piperidin-4-yl 4-fluoro-4-(((trans-2-phenylcyclopropyl)amino)methyl)piperidine-1-carboxylate], the IC50 was above 20 µM under setting [1] and 1.24 ± 0.844 µM under setting [2].

For the molecule `CC(C)(C)OC(=O)c1ccc(CN2CCC(F)(CNC3CC3c3ccc(-c4ccc(Cl)cc4)s3)CC2)cc1` (centres unmarked) [Example A106], the IC50 by setting is: under setting [1], 1.71 ± 0.22 µM; under setting [2], 9.99 ± 1.5 µM.

With `O=C(OCC1CCNCC1)N1CCC(F)(CNC2CC2c2ccc(C3CC3)s2)CC1` (centres unmarked) [Example A113, Piperidin-4-ylmethyl 4-(((2-(5-cyclopropylthien-2-yl)cyclopropyl)amino)methyl)-4-fluoropiperidine-1-carboxylate], the IC50 is above 20 µM under setting [1] and above 20 µM under setting [2].

For `O=C(NC1CCC(F)(CNC2CC2c2ccccc2)CC1)OCc1ccccc1` (stereo not drawn) [Example A19, Benzyl 4-fluoro-4-((trans-2-phenylcyclopropyl)amino)methyl)cyclohexyl)carbamate], the IC50 by setting is: under setting [1], above 20 µM; under setting [2], 2.57 ± 1.66 µM.

As for `O=C(O)c1ccc(CN2CCC(F)(CNC3CC3c3ccc(Br)s3)CC2)cc1` (centres unmarked) [Example A102], the IC50 reads like this: under setting [1], above 20 µM; under setting [2], above 20 µM.

On to `CCc1ccc(Oc2ccc(C3CC3NCC3(F)CCN(C(=O)OCC4CCNCC4)CC3)cn2)cc1` (centres unmarked) [Example A116], for which the IC50 was 19.4 ± 7.38 µM under setting [1] and 7.41 ± 2.53 µM under setting [2].

For `COc1ccc(-c2ccc(C3CC3NCC3(F)CCN(C(=O)OCC4CCNCC4)CC3)cn2)cc1` (centres unmarked) [Example A112, Piperidin-4-ylmethyl 4-fluoro-4-(((2-(6-(4-methoxyphenyl)pyridin-3-yl)cyclopropyl)amino)methyl)piperidine-1-carboxylate], the IC50 is, setting by setting: under setting [1], above 20 µM; under setting [2], above 20 µM.

For `CC(C)(C)OC(=O)c1ccc(CN2CCC(F)(CNC3CC3c3ccc(Br)s3)CC2)cc1` (centres unmarked) [Example A101, Tert-Butyl 4-((4-(((2-(5-bromothien-2-yl))cyclopropyl)amino)methyl)-4-fluoropiperidin-1-yl)methyl)benz Oate], the IC50 is 2.21 ± 0.63 µM under setting [1] and above 20 µM under setting [2].

As to `O=C(Oc1ccccc1)N1CCC(F)(CNC2CC2c2ccccc2)CC1` (stereo not drawn) [Example A9, Phenyl 4-Fluoro-4-((trans-2-phenylcyclopropyl)amino)methyl)piperidine-1-carboxylate], the IC50 reads like this: under setting [1], above 20 µM; under setting [2], 1.16 ± 0.15 µM.

For the molecule `O=C(O)c1ccc(CN2CCC(F)(CN[C@@H]3C[C@H]3c3ccccc3)CC2)cc1` [(1R,2S)-A5, 4-((4-Fluoro-4-((((1R,2S)-2-phenylcyclopropyl)amino)methyl)piperidin-1-yl)methyl)benzoate], the IC50 was above 20 µM under setting [1] and 0.29 ± 0.19 µM under setting [2].

As to `CC(C)(C)OC(=O)c1ccc(CN2CCC(F)(CNC3CC3c3ccc(-c4ccc(F)cc4)s3)CC2)cc1` (centres unmarked) [Example A105, Tert-butyl 4-((4-fluoro-4-(((2-(5-(4-fluorophenyl)thiophen-2-yl)cyclopropyl)amino)methyl)piperidin-1-yl)methyl)benzoate], the IC50 under setting [1] stood at 1.95 ± 0.6 µM and the IC50 under setting [2] turned out to be 8.35 ± 0.71 µM.
